Assay [1] concerns chloroquine sensitive P. falciparum. The assay is described as follows: Direct antimalarial activity of novel fatty acids (malaria growth inhibition, 3H-hypoxanthine). Format: cell-based. The protocol: The plates were then incubated overnight. Individual well contents were collected onto glass filter paper and incorporated 3H measured in a liquid scintillation counter. Percent growth inhibition of the parasite was then calculated.

The next assay relates to P. falciparum. The assay is described as follows: Fatty acid stimulated neutrophil-mediated anti-malarial activity. Format: cell-based. The conditions noted are these: for inhibition relative to 22:6 (%) at 16 µM: Plasmodium falciparum. The protocol: To overcome fatty acid insolubility in aqueous solution mixed dipalmitoyl phophatidylcholine (DPC, 400 μg): fatty acid (100 μg) micells were prepared in HBSS by sonication. Neutrophils were pretreated for 30 min at 37° C. In some experiments PUFA were solubilized in ethanol. Aliquots of RBC (5×10^6 with […] parasitaemia) was mixed with neutrophils […] in the wells of a 96-well microtitre plate and than incubated for 2 hr at 37° C. in 5% CO2 in air before adding 1 μCi of 3H-hypoxanthine. The plates were then incubated overnight. Individual well contents were collected onto glass filter paper and incorporated 3H measured in a liquid scintillation counter. Percent growth inhibition of the parasite was then calculated.

The next assay deals with TNFα production. The assay is described as follows: PHA-induced TNFα production by mononuclear cells (ELISA). The format is cell-based, human. The protocol:
(§1) Mononuclear cells were separated from peripheral blood of normal human donors as described by Ferrante and Thong (1978. . . ). The mononuclear cells were resuspended in RPMI-1640 containing 20% human AB serum and placed into 96 well microtrays (50 μl per well, cell density […]). Fatty acid (66 μm) was then added in 50 μl and pre-incubated with the cells for 30 min at 37° C. in 5% CO2. Mitogen (PHA, ConA, PWM, Staph. aureus) was then added in 100 μl and the cells incubated for 66 hours at 37° C. in 5% CO2 before the addition of tritiated thymidine (1 μCi/well). After a total of 72 h in culture the cells were harvested and proliferation (thymidine incorporation) and supernatant's assayed for the presence of cytokines. Cytokine levels in culture supernatants were determined by specific ELISA using anti-cytokine antibodies. The following cytokine levels were determined TNFα, TNFβ, interferon-γ, IL-1β, IL-2.

The test system of assay [2] is cytokine production (TNFα, interferon, IL-2). The assay is described as follows: PHA-induced cytokine production by human peripheral blood mononuclear cells (FIG. 3, FIG. 4). The conditions noted are these: macrophage and T cell-derived cytokines. The format is cell-based. The protocol: as §1, with “cytokines.” for “cytokines. Cytokine levels in culture supernatants were determined by specific ELISA using anti-cytokine antibodies. The following cytokine levels were determined TNFα, TNFβ, interferon-γ, IL-1β, IL-2.”
Cytokine levels in culture supernatants were determined by specific ELISA using anti-cytokine antibodies. The following cytokine levels were determined TNFα, TNFβ, interferon-γ, IL-1β, IL-2.

Assay [3] has as its system human umbilical vein endothelial cells. The assay is described as follows: TNFα-induced expression of E-selectin (ELAM-1) by human umbilical vein endothelial cells. Format: cell-based. The conditions noted are these: FIG. 5. The protocol: Human umbilical cord endothelial cells (5×10^4.passage 1) were plated onto the centre 60 wells of 96 well microtrays, the remaining wells were filled with pyrongen-free distilled water to reduce evaporation in the wells containing cells. The cells were fed with fresh medium (M199 supplemented with 20% FCS and endothelial cell growth supplement) every second day until confluent. On the day preceding the assay the cells were washed with HBSS and re-fed. At the time of assay the medium was aspirated and fatty acides prepared in media were added to each well and incubated for various times as shown in FIGS. At 37-0-C in 5% CO2. After this incubation the cells were washed and treated with either TNF or PMA before being washed three times in PBS and fixed (100 μl, 0.025% glutaraldehyde in PBS, overnight at 4° C.). The wells were washed with PBS and either anti-ELAM (Becton-Dickinson, 100 μl, 1/1.000 in M199 containing 20% FCS) or anti-ICAM (Immunotech, 100 μl, […] in M199 containing 20% FCS) was added and incubated for 1 hour at room temperature after which the wells were washed with PBS ant 100 μl of rabbit anti-mouse Ig-HRP conjugate was added (1/1.000. Dako). A further incubation at room temperature for one hour followed before the plates were washed three time prior to the addition of 100 μl of the substrate (ABTS). Colour development was measured at 410 nm in a microplate reader.

[4] abbreviates: neutrophil-mediated killing of P. falciparum, Table 2.
Where [5] appears, read: Table 5, second printing (stands where Table 6 is expected).

The record followed here is patent US6376688B1, “Modified polyunsaturated fatty acids” (Peptide Technology Limited, priority 1994, dated 2002).

The term EC50 denotes the concentration needed to bring the measured effect to its halfway point. A high value points to weaker potency. In general, inhibition refers to the share of the control response that was lost under treatment.

Like-named read-outs stand apart in the source and are kept apart here. Some results are limits rather than exact numbers.

`CCCCCC(O)/C=C/C=C\C/C=C\CCCCCOCC(=O)O` (stereo not drawn) [16-OH-β-oxa 21:3 (n-6), Z,Z,E-(13-Hydroxy-6,9,11-octadecatienyloxy)acetic acid] yielded an EC50 in assay [1] of 50 µM. Moreover, the “% INHIBITION RELATIVE TO 22:6 AT 16 μM” value in the assay with P. falciparum (setting [4]) amounted to 33%. Besides, the “% INHIBITION OF CYTOKINE PRODUCTION (PUFA AT 20 μM)” value (“% INHIBITION OF CYTOKINE PRODUCTION” below) in the assay on TNFα production (Table 5, first printing) was 71%; in the assay on TNFα production (setting [5]), 71%.
For `CC/C=C\C/C=C\C/C=C\CCCCCCCCSCCC(=O)O` [γ-thia 22.3 (n-3), Z,Z,Z-(9,12,15-Octadecatrienylthio)proponionic acid], the EC50 in assay [1] worked out at 45 µM. For the same compound, the “% INHIBITION OF CYTOKINE PRODUCTION” value in the assay on TNFα production (Table 5, first printing) is on record as 25%; with TNFα production (setting [5]), 25%.
Turning to `CCC=CCC=CCC=CCC=CCC=CCCCC(=O)O` [20:5, 5,8, 11, 14, 17-eicosapentaenoic], the “effect on PHA-induced cytokine production” value in assay [2] is “inhibit in vitro production of macrophage and T cell-derived cytokines”.
Compound “Z,Z,Z,Z-(6,9,12-Octadecatrienylthio)acetic acid [β-thia 21:3 (n-6)]” returned a concentration giving a half-maximal response (EC50) in assay [1] of 30 to 50 µM. Besides, the “% INHIBITION OF CYTOKINE PRODUCTION” value with TNFα production (Table 5, first printing) is 17%; with TNFα production (setting [5]) it was 17%.
Turning to `CCCCCC=CCC=CCC=CCC=CCCCC(=O)O` [20:4, 5,8,11,14-Eicosatetraenoic acid], the “effect on TNFα-induced expression of E-selectin” value in assay [3] is listed as “inhibit TNFα-induced expression of E-selection”.
In assay [1] (Plasmodium falciparum), `CCCCC/C=C\C/C=C\C/C=C\C/C=C\CCCCSCC(=O)O` [β-thia 23:4 (n-6), Z,Z,Z,Z-(5,8,11,14-Eicosatetraenylthio) acetic acid] displayed an EC50 of 15 to 30 µM. The inhibition relative to 22:6 (%) at 16 µM in the assay on P. falciparum (setting [4]) is 150%. Besides, the “% INHIBITION OF CYTOKINE PRODUCTION” value in the assay on TNFα production (setting [5]) worked out at 35%.
Compound `CC/C=C\C/C=C\C/C=C\C/C=C\C/C=C\C/C=C\CCCOCC(=O)O` [β-oxa 25.6 (n-3), Z,Z,Z,Z,Z,Z-(4,7, 10, 13, 16, 19-Docosahexaenyloxy) acetic acid] displayed an EC50 in assay [1] (Plasmodium falciparum) of less than 60 µM.
As for `CCC=CCC=CCC=CCC=CCC=CCC=CCCC(=O)O` [22:6, 4,7, 10, 13, 16, 19-docosahexaenoic acid], the “effect on PHA-induced cytokine production” value in assay [2] is “inhibit in vitro production of macrophage and T cell-derived cytokines”.
For the compound “Z,Z,Z,Z-(5,8,11,14-Eicosatetraenylthio) propionic acid [γ-thia 24.4 (n-6)]”, the EC50 in assay [1] worked out at 15 µM. Besides, the “% INHIBITION RELATIVE TO 22:6 AT 16 μM” value was determined as 91% in the assay on P. falciparum (Table 2, second printing (stands where Table 3 is expected)); 91% with P. falciparum (Table 2, third printing (stands where Table 4 is expected)); 91% in the assay on P. falciparum (setting [4]). The “% INHIBITION OF CYTOKINE PRODUCTION” value turned out to be 34% in the assay with TNFα production (Table 5, first printing) and 34% with TNFα production (setting [5]).
Turning to `CCCCC/C=C\C/C=C\C/C=C\CCCCCOCC(=O)O` [β-oxa 21:3 (n-6), Z,Z,Z-(6,9, 12-Octadecatrienyloxy) acetic acid], the EC50 in assay [1] (Plasmodium falciparum) was less than 30 µM. For the same compound, the “% INHIBITION OF CYTOKINE PRODUCTION” value in the assay on TNFα production (setting [5]) amounted to 38%.
For `CCCCC/C=C\C/C=C\C/C=C\C/C=C\CCCCSC(CC(=O)O)C(=O)O` (stereo not drawn) [α-carboxymethyl-β-thia 23.4 (n-6)], in assay [1], the EC50 worked out at 50 µM.
As to `CC/C=C\C/C=C\C/C=C\CCCCCCCCOCC(=O)O` [β-oxa 21:3 (n-3), Z,Z,Z-(9, 12, 15-Octadecatrienyloxy) acetic acid], a half-maximal response in assay [1] (Plasmodium falciparum) (EC50) required 30 µM. The inhibition relative to 22:6 (%) at 16 µM in the assay with P. falciparum (setting [4]) turned out to be 45%. Moreover, the “% INHIBITION OF CYTOKINE PRODUCTION” value with TNFα production (setting [5]) was found to be 39%.
“Z,Z,Z,Z,Z,Z-(9,12,15-Octadecatrienylthio)acetic acid [β-thia 25.6 (n-3)]”: the EC50 in assay [1] is 25 µM. In the assay with P. falciparum (setting [4]), the “% INHIBITION RELATIVE TO 22:6 AT 16 μM” value came out at 47%. For the same compound, the “% INHIBITION OF CYTOKINE PRODUCTION” value is 90% with TNFα production (Table 5, first printing) and 90% in the assay with TNFα production (setting [5]).
In assay [1] (Plasmodium falciparum), `CC/C=C\CC(O)/C=C/C=C\CCCCCCCCOCC(=O)O` (stereo not drawn) [16-OH-β-oxa 21:3 (n-3), Z,E,Z-(13-Hydroxy-9, 11, 15-octadecatrienyloxy)acetic acid] came in with an EC50 of 40 µM. Besides, the inhibition at 20 µM in the assay on TNFα production (Homo sapiens, PUFA at 20 μM, Table 5, read-out: % INHIBITION OF CYTOKINE PRODUCTION (PUFA AT 20 μM)) worked out at 68%.
On to `CCCCC/C=C\C/C=C\C/C=C\CCCCCSCCC(=O)O` [γ-thia 22.3 (n-6), Z,Z,Z-(6,9,12-Octadecatrienylthio)propionic acid], for which the response in assay [1] was half-maximal at 45 µM (EC50). In addition, the “% INHIBITION OF CYTOKINE PRODUCTION” value with TNFα production (Table 5, first printing) is listed as 41%; in the assay on TNFα production (setting [5]), 41%.
As for `CC/C=C\C/C=C\C/C=C\C/C=C\CCCCCOCC(=O)O` [β-oxa 21:4 (n-3), Z,Z,Z,Z-(6,9, 12, 15-Octadecatetraenyloxy) acetic acid], in assay [1] (Plasmodium falciparum), the EC50 came out at 40 µM. In the assay with P. falciparum (setting [4]), the inhibition relative to 22:6 (%) at 16 µM came to 85%.
In the case of `CC/C=C\C/C=C\C/C=C\CCCCCCCCSCC(=O)O` [β-thia 21:3 (n-3), Z,Z,Z-(9,12,15-Octadecatrienylthio)acetic acid], the EC50 in assay [1] (Plasmodium falciparum) lay in the range of 30 to 35 µM. For the same compound, in the assay with P. falciparum (setting [4]), the inhibition relative to 22:6 (%) at 16 µM came out at 73%. Besides, in the assay with TNFα production (setting [5]), the “% INHIBITION OF CYTOKINE PRODUCTION” value is reported as 17%.
`CCCCC/C=C\C/C=C\C/C=C\C/C=C\CCCCOCC(=O)O` [β-oxa 23.4 (n-6), Z,Z,Z,Z(5,8, 11, 14-Eicosatetraenyloxy) acetic acid] yielded a 50% effective concentration (EC50) in assay [1] of less than 30 µM. In addition, the “% INHIBITION OF CYTOKINE PRODUCTION” value was 25% in the assay with TNFα production (Table 5, first printing) and 25% in the assay with TNFα production (setting [5]).
